Data as given in patent publication US8686044B2, “Amide derivative, pest control agent containing the amide derivative, and use of the amide derivative” (Mitsui Chemicals Agro, Inc., priority 2008, dated 2014).

Experiments:
Assay type in all cases: in vivo
Helicoverpa armigera = experiment: Pesticidal test against Helicoverpa armigera (cabbage leaf disk dip); conditions: foliar, 72 h, concentration 1 ppm, 2-stage larvae, examined after 3 days, 25° C., read-out: pesticidal rate
Protocol: Pesticidal Test against Helicoverpa armigera A cabbage leaf disk was immersed for 30 seconds in a chemical solution in which a test compound had been prepared at a predetermined concentration, and air-dried. The leaf disk was put into a 6-hole plastic cup having a filter paper laid on the bottom thereof, and 2-stage larvae of Helicoverpa armigera were released with one insect being released per hole. They were left to stand in a thermostatic chamber at 25° C., and the numbers of the living pests and the dead pests were examined after 3 days. The test was carried out with five larvae per group in two replicates. Further, the above compound (A) was used as a comparative compound.

Adoxophyes honmai = experiment: Pesticidal test against Adoxophyes honmai (artificial feed dip); conditions: 144 h, 2-stage larvae, examined after 6 days, 25° C., read-out: pesticidal rate; for pest or weed control at 1 ppm: concentration 1 ppm; for pest or weed control at 10 ppm: concentration 10 ppm
Protocol: (§1) Pesticidal Test against Adoxophyes honmai A thinly sliced artificial feed was immersed for 30 seconds in a chemical solution in which a test compound had been prepared at a predetermined concentration, and air-dried, and then put into a 7 cm polyethylene cup having a filter paper laid on the bottom thereof, and 2-stage larvae of Adoxophyes honmai were released. They were left to stand in a thermostatic chamber at 25° C., and the numbers of the living pests and the dead pests were examined after 6 days. The test was carried out with five larvae per group in two replicates. Further, the above compound (A) was used as a comparative compound.

Plutella xylostella = experiment: Pesticidal test against Plutella xylostella (cabbage leaf dip); conditions: foliar, 144 h, concentration 1 ppm, 2-stage larvae, examined after 6 days, 25° C., read-out: pesticidal rate
Method in brief: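 Second-stage larvae (5 per group, two replicates) were released onto air-dried cabbage leaf discs that had been immersed for 30 seconds in compound solution at a set concentration. Mortality was scored after 6 days at 25° C.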

Musca domestica = experiment: Pesticidal test against Musca domestica (petri dish dry film); conditions: 24 h, concentration 100 ppm, female adults, examined after 1 day, 25° C., read-out: pesticidal rate
Protocol: Pesticidal Test against Musca domestica
1 ml of an acetone solution in which a test compound had been prepared at a predetermined concentration was added dropwise to a petri dish having a diameter of 9 cm, and air-dried, and then the female adults of Musca domestica were released and the petri dish was capped. They were left to stand in a thermostatic chamber at 25° C., and the numbers of the living pests and the dead pests were examined after 1 day. The test was carried out with five larvae per group in two replicates.

Spodoptera litura = experiment: Pesticidal test against Spodoptera litura (cabbage leaf dip); conditions: foliar, 144 h, concentration 1 ppm, 2-stage larvae, examined after 6 days, 25° C., read-out: pesticidal rate
Method in brief: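 Cabbage leaf pieces dipped 30 seconds in compound solution at a predetermined concentration and air-dried, then offered to second-stage larvae, five per group in two replicates. Held at 25° C. Living and dead larvae counted after 6 days.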

Laodelphax striatellus = experiment: Pesticidal test against Laodelphax striatellus (rice seedling spray); conditions: 144 h, concentration 100 ppm, 3-stage larvae, examined after 6 days, 25° C., read-out: pesticidal rate
Method in brief: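 Rice seedlings sprayed with 2.5 ml acetone solution of compound at a predetermined concentration, air-dried, then infested with third-stage Laodelphax striatellus larvae in capped water-containing tubes at 25 °C. Living and dead insects counted after 6 days; ten larvae per group, two replicates.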

Choristoneura magnanima = experiment: Pesticidal test against Choristoneura magnanima (artificial feed dip); conditions: 144 h, 2-stage larvae, examined after 6 days, 25° C., read-out: pesticidal rate; for pest or weed control at 1 ppm: concentration 1 ppm
Protocol: as §1, with “Choristoneura magnanima” for “Adoxophyes honmai”

O=C(Nc1cccc(C(=O)Nc2c(Br)cc(C(F)(C(F)(F)F)C(F)(F)C(F)(F)F)cc2C(F)(F)F)c1)c1cccc(F)c1 (stereo not shown) [6-348]
≥ 70%: pest or weed control at 1 ppm (Helicoverpa armigera) | pest or weed control at 1 ppm (Adoxophyes honmai) | pest or weed control at 1 ppm (Plutella xylostella) | pest or weed control at 100 ppm (Musca domestica) | pest or weed control at 1 ppm (Spodoptera litura)

O=C(Nc1cccc(C(=O)Nc2c(I)cc(C(F)(C(F)(F)F)C(F)(F)C(F)(F)F)cc2C(F)(F)F)c1)c1cccc(F)c1 (stereo not shown) [6-504]
≥ 70%: pest or weed control at 1 ppm (Helicoverpa armigera) | pest or weed control at 1 ppm (Adoxophyes honmai) | pest or weed control at 1 ppm (Plutella xylostella) | pest or weed control at 100 ppm (Musca domestica) | pest or weed control at 1 ppm (Spodoptera litura)

O=C(Nc1cccc(C(=O)Nc2c(I)cc(C(F)(C(F)(F)F)C(F)(F)C(F)(F)F)cc2C(F)(F)F)c1)c1ccc(F)cc1 (stereo not shown) [6-505]
≥ 70%: pest or weed control at 1 ppm (Helicoverpa armigera) | pest or weed control at 1 ppm (Adoxophyes honmai) | pest or weed control at 1 ppm (Plutella xylostella) | pest or weed control at 100 ppm (Musca domestica) | pest or weed control at 1 ppm (Spodoptera litura)

N#Cc1cccc(C(=O)Nc2cccc(C(=O)Nc3c(I)cc(C(F)(C(F)(F)F)C(F)(F)C(F)(F)F)cc3C(F)(F)F)c2)c1 (stereo not shown) [6-522]
≥ 70%: pest or weed control at 1 ppm (Helicoverpa armigera) | pest or weed control at 1 ppm (Adoxophyes honmai) | pest or weed control at 1 ppm (Plutella xylostella) | pest or weed control at 100 ppm (Musca domestica) | pest or weed control at 1 ppm (Spodoptera litura)

N#Cc1ccc(C(=O)Nc2cccc(C(=O)Nc3c(I)cc(C(F)(C(F)(F)F)C(F)(F)C(F)(F)F)cc3C(F)(F)F)c2)cc1 (stereo not shown) [6-523]
≥ 70%: pest or weed control at 1 ppm (Helicoverpa armigera) | pest or weed control at 10 ppm (Adoxophyes honmai) | pest or weed control at 1 ppm (Plutella xylostella) | pest or weed control at 100 ppm (Musca domestica) | pest or weed control at 1 ppm (Spodoptera litura)

O=C(Nc1c(I)cc(C(F)(C(F)(F)F)C(F)(F)C(F)(F)F)cc1C(F)(F)F)c1cccc(NC(=O)c2c(F)cccc2F)c1 (stereo not shown) [6-524]
≥ 70%: pest or weed control at 1 ppm (Helicoverpa armigera) | pest or weed control at 1 ppm (Adoxophyes honmai) | pest or weed control at 1 ppm (Plutella xylostella) | pest or weed control at 100 ppm (Musca domestica) | pest or weed control at 1 ppm (Spodoptera litura)

O=C(Nc1cccc(C(=O)Nc2c(Br)cc(C(F)(C(F)(F)F)C(F)(F)C(F)(F)F)cc2Br)c1F)c1ccccc1 (stereo not shown) [6-1182]
≥ 70%: pest or weed control at 1 ppm (Adoxophyes honmai) | pest or weed control at 1 ppm (Plutella xylostella) | pest or weed control at 1 ppm (Spodoptera litura) | pest or weed control at 100 ppm (Laodelphax striatellus) | pest or weed control at 1 ppm (Choristoneura magnanima)

O=C(Nc1cccc(C(=O)Nc2c(I)cc(C(F)(C(F)(F)F)C(F)(F)C(F)(F)F)cc2I)c1F)c1ccc(F)cc1 (stereo not shown) [6-1341]
≥ 70%: pest or weed control at 1 ppm (Helicoverpa armigera) | pest or weed control at 1 ppm (Adoxophyes honmai) | pest or weed control at 1 ppm (Plutella xylostella) | pest or weed control at 100 ppm (Musca domestica) | pest or weed control at 1 ppm (Spodoptera litura) | pest or weed control at 100 ppm (Laodelphax striatellus)

N#Cc1ccc(C(=O)Nc2cccc(C(=O)Nc3c(Br)cc(C(F)(C(F)(F)F)C(F)(F)C(F)(F)F)cc3C(F)(F)F)c2F)cc1 (stereo not shown) [6-1673]
≥ 70%: pest or weed control at 1 ppm (Helicoverpa armigera) | pest or weed control at 1 ppm (Plutella xylostella) | pest or weed control at 100 ppm (Musca domestica) | pest or weed control at 1 ppm (Spodoptera litura) | pest or weed control at 100 ppm (Laodelphax striatellus) | pest or weed control at 1 ppm (Choristoneura magnanima)

N#Cc1ccc(C(=O)Nc2cccc(C(=O)Nc3c(I)cc(C(F)(C(F)(F)F)C(F)(F)C(F)(F)F)cc3C(F)(F)F)c2F)cc1 (stereo not shown) [6-1829]
≥ 70%: pest or weed control at 1 ppm (Helicoverpa armigera) | pest or weed control at 1 ppm (Plutella xylostella) | pest or weed control at 100 ppm (Musca domestica) | pest or weed control at 1 ppm (Spodoptera litura) | pest or weed control at 100 ppm (Laodelphax striatellus) | pest or weed control at 1 ppm (Choristoneura magnanima)

CN(C(=O)c1cccnc1Cl)c1cccc(C(=O)Nc2c(I)cc(C(F)(C(F)(F)F)C(F)(F)C(F)(F)F)cc2I)c1 (stereo not shown) [7-90]
≥ 70%: pest or weed control at 1 ppm (Helicoverpa armigera) | pest or weed control at 1 ppm (Plutella xylostella) | pest or weed control at 100 ppm (Musca domestica) | pest or weed control at 1 ppm (Spodoptera litura) | pest or weed control at 100 ppm (Laodelphax striatellus) | pest or weed control at 1 ppm (Choristoneura magnanima)

CN(C(=O)c1cccc(F)c1)c1cccc(C(=O)Nc2c(I)cc(C(F)(C(F)(F)F)C(F)(F)C(F)(F)F)cc2C(F)(F)F)c1 (stereo not shown) [7-504]
≥ 70%: pest or weed control at 1 ppm (Plutella xylostella) | pest or weed control at 100 ppm (Musca domestica) | pest or weed control at 1 ppm (Spodoptera litura) | pest or weed control at 1 ppm (Choristoneura magnanima)

CN(C(=O)c1cccc(C#N)c1)c1cccc(C(=O)Nc2c(I)cc(C(F)(C(F)(F)F)C(F)(F)C(F)(F)F)cc2C(F)(F)F)c1 (stereo not shown) [7-522]
≥ 70%: pest or weed control at 1 ppm (Helicoverpa armigera) | pest or weed control at 1 ppm (Adoxophyes honmai) | pest or weed control at 1 ppm (Plutella xylostella) | pest or weed control at 100 ppm (Musca domestica) | pest or weed control at 1 ppm (Spodoptera litura)

CN(C(=O)c1cccc(C#N)c1)c1cccc(C(=O)Nc2c(Br)cc(C(F)(C(F)(F)F)C(F)(F)F)cc2Br)c1F [7-1124]
≥ 70%: pest or weed control at 10 ppm (Adoxophyes honmai) | pest or weed control at 1 ppm (Plutella xylostella) | pest or weed control at 1 ppm (Spodoptera litura) | pest or weed control at 100 ppm (Laodelphax striatellus) | pest or weed control at 1 ppm (Choristoneura magnanima)

CN(C(=O)c1ccc(C#N)cc1)c1cccc(C(=O)Nc2c(I)cc(C(F)(C(F)(F)F)C(F)(F)F)cc2I)c1F [7-1281]
≥ 70%: pest or weed control at 1 ppm (Plutella xylostella) | pest or weed control at 1 ppm (Spodoptera litura) | pest or weed control at 100 ppm (Laodelphax striatellus) | pest or weed control at 1 ppm (Choristoneura magnanima)

CN(C(=O)c1ccccc1)c1cccc(C(=O)Nc2c(I)cc(C(F)(C(F)(F)F)C(F)(F)C(F)(F)F)cc2I)c1F (stereo not shown) [7-1338]
≥ 70%: pest or weed control at 1 ppm (Helicoverpa armigera) | pest or weed control at 1 ppm (Adoxophyes honmai) | pest or weed control at 1 ppm (Plutella xylostella) | pest or weed control at 100 ppm (Musca domestica) | pest or weed control at 1 ppm (Spodoptera litura) | pest or weed control at 100 ppm (Laodelphax striatellus)

CN(C(=O)c1ccc(C#N)cc1)c1cccc(C(=O)Nc2c(I)cc(C(F)(C(F)(F)F)C(F)(F)C(F)(F)F)cc2I)c1F (stereo not shown) [7-1359]
≥ 70%: pest or weed control at 1 ppm (Helicoverpa armigera) | pest or weed control at 1 ppm (Plutella xylostella) | pest or weed control at 100 ppm (Musca domestica) | pest or weed control at 1 ppm (Spodoptera litura) | pest or weed control at 100 ppm (Laodelphax striatellus) | pest or weed control at 1 ppm (Choristoneura magnanima)

CN(C(=O)c1ccc(C#N)cc1F)c1cccc(C(=O)Nc2c(Br)cc(C(F)(C(F)(F)F)C(F)(F)F)cc2C(F)(F)F)c1F [7-1606]
≥ 70%: pest or weed control at 1 ppm (Helicoverpa armigera) | pest or weed control at 1 ppm (Plutella xylostella) | pest or weed control at 1 ppm (Spodoptera litura) | pest or weed control at 100 ppm (Laodelphax striatellus) | pest or weed control at 10 ppm (Choristoneura magnanima; concentration 10 ppm)

CN(C(=O)c1ccc(C#N)cc1)c1cccc(C(=O)Nc2c(I)cc(C(F)(C(F)(F)F)C(F)(F)C(F)(F)F)cc2C(F)(F)F)c1F (stereo not shown) [7-1829]
≥ 70%: pest or weed control at 1 ppm (Helicoverpa armigera) | pest or weed control at 1 ppm (Plutella xylostella) | pest or weed control at 100 ppm (Musca domestica) | pest or weed control at 1 ppm (Spodoptera litura) | pest or weed control at 100 ppm (Laodelphax striatellus) | pest or weed control at 1 ppm (Choristoneura magnanima)
